Results as given in PubChem BioAssay (NCI).
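GI50: concentration for 50% inhibition of growth. TGI: concentration producing complete growth inhibition.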

Key:
Assay in all cases: NCI-60 cell line screen, 384-well format
786-0 renal = test system: 786-0 renal
A498 renal = test system: A498 renal
A549 NSCLC = test system: A549 NSCLC
ACHN renal = test system: ACHN renal
BT-549 breast = test system: BT-549 breast
CAKI-1 renal = test system: CAKI-1 renal
CCRF-CEM leukemia = test system: CCRF-CEM leukemia
COLO 205 colon = test system: COLO 205 colon
DU-145 prostate = test system: DU-145 prostate
EKVX NSCLC = test system: EKVX NSCLC
HCC-2998 colon = test system: HCC-2998 colon
HCT-15 colon = test system: HCT-15 colon
HL-60(TB) leukemia = test system: HL-60(TB) leukemia
HOP-62 NSCLC = test system: HOP-62 NSCLC
HOP-92 NSCLC = test system: HOP-92 NSCLC
HS 578T breast = test system: HS 578T breast
HT29 colon = test system: HT29 colon
IGROV1 ovarian = test system: IGROV1 ovarian
K-562 leukemia = test system: K-562 leukemia
KM12 colon = test system: KM12 colon
LOX IMVI melanoma = test system: LOX IMVI melanoma
M14 melanoma = test system: M14 melanoma
MALME-3M melanoma = test system: MALME-3M melanoma
MCF7 breast = test system: MCF7 breast
MDA-MB-231 breast = test system: MDA-MB-231 breast
MDA-MB-435 melanoma = test system: MDA-MB-435 melanoma
MDA-MB-468 breast = test system: MDA-MB-468 breast
MOLT-4 leukemia = test system: MOLT-4 leukemia
NCI-H226 lung = test system: NCI-H226 lung
NCI-H23 lung = test system: NCI-H23 lung
NCI-H322M lung = test system: NCI-H322M lung
NCI-H460 NSCLC = test system: NCI-H460 NSCLC
NCI-H522 lung = test system: NCI-H522 lung
NCI/ADR-RES ovarian = test system: NCI/ADR-RES ovarian
OVCAR-3 ovarian = test system: OVCAR-3 ovarian
OVCAR-4 ovarian = test system: OVCAR-4 ovarian
OVCAR-5 ovarian = test system: OVCAR-5 ovarian
OVCAR-8 ovarian = test system: OVCAR-8 ovarian
PC-3 prostate = test system: PC-3 prostate
RPMI-8226 leukemia = test system: RPMI-8226 leukemia
RXF 393 renal = test system: RXF 393 renal
SF-268 CNS = test system: SF-268 CNS
SF-295 CNS = test system: SF-295 CNS
SF-539 CNS = test system: SF-539 CNS
SK-MEL-28 melanoma = test system: SK-MEL-28 melanoma
SK-MEL-5 melanoma = test system: SK-MEL-5 melanoma
SK-OV-3 ovarian = test system: SK-OV-3 ovarian
SN12C renal = test system: SN12C renal
SNB-19 CNS = test system: SNB-19 CNS
SNB-75 CNS = test system: SNB-75 CNS
SR leukemia = test system: SR leukemia
SW-620 colon = test system: SW-620 colon
T-47D breast = test system: T-47D breast
TK-10 renal = test system: TK-10 renal
UACC-257 melanoma = test system: UACC-257 melanoma
UACC-62 melanoma = test system: UACC-62 melanoma
UO-31 renal = test system: UO-31 renal

## [2H]C([2H])([2H])NC(=O)c1nnc(NC(=O)C2CC2)cc1Nc1cccc(-c2ncn(C)n2)c1OC
786-0 renal
  GI50: 66.2 µM
  TGI: > 100 µM
A498 renal
  GI50: 6.3 µM
  TGI: > 100 µM
A549 NSCLC
  GI50: 84.4 µM
  TGI: > 100 µM
ACHN renal
  GI50: 16.6 µM
  TGI: > 100 µM
BT-549 breast
  GI50: > 100 µM
  TGI: > 100 µM
CAKI-1 renal
  GI50: 14.6 µM
  TGI: > 100 µM
CCRF-CEM leukemia
  GI50: 16.6 µM
  TGI: 48.6 µM
COLO 205 colon
  GI50: > 100 µM
  TGI: > 100 µM
DU-145 prostate
  GI50: 16.4 µM
  TGI: > 100 µM
EKVX NSCLC
  GI50: > 100 µM
  TGI: > 100 µM
HCC-2998 colon
  GI50: > 100 µM
  TGI: > 100 µM
HCT-15 colon
  GI50: 12.9 µM
  TGI: > 100 µM
HL-60(TB) leukemia
  GI50: 10.9 µM
  TGI: 26.7 µM
HOP-62 NSCLC
  GI50: 25.1 µM
  TGI: 84.9 µM
HOP-92 NSCLC
  GI50: 25.4 µM
  TGI: > 100 µM
HS 578T breast
  GI50: 18 µM
  TGI: > 100 µM
HT29 colon
  GI50: > 100 µM
  TGI: > 100 µM
IGROV1 ovarian
  GI50: 26.4 µM
  TGI: > 100 µM
K-562 leukemia
  GI50: 43.4 µM
  TGI: > 100 µM
KM12 colon
  GI50: 30.2 µM
  TGI: > 100 µM
LOX IMVI melanoma
  GI50: 25 µM
  TGI: > 100 µM
M14 melanoma
  GI50: 22.8 µM
  TGI: > 100 µM
MALME-3M melanoma
  GI50: 32.2 µM
  TGI: > 100 µM
MCF7 breast
  GI50: > 100 µM
  TGI: > 100 µM
MDA-MB-231 breast
  GI50: 29.2 µM
  TGI: > 100 µM
MDA-MB-435 melanoma
  GI50: > 100 µM
  TGI: > 100 µM
MDA-MB-468 breast
  GI50: 13.3 µM
  TGI: 42.3 µM
MOLT-4 leukemia
  GI50: 15.9 µM
  TGI: 36.8 µM
NCI-H226 lung
  GI50: 43.9 µM
  TGI: > 100 µM
NCI-H23 lung
  GI50: 43.7 µM
  TGI: > 100 µM
NCI-H322M lung
  GI50: 23.3 µM
  TGI: > 100 µM
NCI-H460 NSCLC
  GI50: 21.3 µM
  TGI: > 100 µM
NCI-H522 lung
  GI50: 79.1 µM
  TGI: > 100 µM
NCI/ADR-RES ovarian
  GI50: 37.4 µM
  TGI: > 100 µM
OVCAR-3 ovarian
  GI50: 41.6 µM
  TGI: > 100 µM
OVCAR-4 ovarian
  GI50: > 100 µM
  TGI: > 100 µM
OVCAR-5 ovarian
  GI50: > 100 µM
  TGI: > 100 µM
OVCAR-8 ovarian
  GI50: 43.6 µM
  TGI: > 100 µM
PC-3 prostate
  GI50: 77.9 µM
  TGI: > 100 µM
RPMI-8226 leukemia
  GI50: 3.93 µM
  TGI: 27.6 µM
RXF 393 renal
  GI50: > 100 µM
  TGI: > 100 µM
SF-268 CNS
  GI50: > 100 µM
  TGI: > 100 µM
SF-295 CNS
  GI50: 33.2 µM
  TGI: > 100 µM
SF-539 CNS
  GI50: 79.2 µM
  TGI: > 100 µM
SK-MEL-28 melanoma
  GI50: 72.9 µM
  TGI: > 100 µM
SK-MEL-5 melanoma
  GI50: 36.8 µM
  TGI: > 100 µM
SK-OV-3 ovarian
  GI50: 5.93 µM
  TGI: 87.6 µM
SN12C renal
  GI50: 32.6 µM
  TGI: > 100 µM
SNB-19 CNS
  GI50: 87.4 µM
  TGI: > 100 µM
SNB-75 CNS
  GI50: 87.9 µM
  TGI: > 100 µM
SR leukemia
  GI50: 29.9 µM
  TGI: > 100 µM
SW-620 colon
  GI50: 93.5 µM
  TGI: > 100 µM
T-47D breast
  GI50: > 100 µM
  TGI: > 100 µM
TK-10 renal
  GI50: > 100 µM
  TGI: > 100 µM
UACC-257 melanoma
  GI50: > 100 µM
  TGI: > 100 µM
UACC-62 melanoma
  GI50: 25.5 µM
  TGI: > 100 µM
UO-31 renal
  GI50: > 100 µM
  TGI: > 100 µM
